Assay results taken from publication PMC9558053, “Development of a novel high-throughput screen for the identification of new inhibitors of protein S-acylation” (The Journal of Biological Chemistry, 2022).

System: endogenous SNAP23 S-acylation in HEK293T cells
Assay: mPEG-click S-acylation of endogenous SNAP23 in HEK293T cells
Type: cell-based, human
Conditions: 25 and 50 μM, 4 h pretreatment + 4 h labeling
Excerpt: Finally, we tested whether TTZ-1 and TTZ-2 were able to block the S-acylation of endogenous proteins in the absence of zDHHC enzyme overexpression. In order to detect the S-acylation of endogenous proteins, we used mPEG-click, a technique that we developed recently ([49]) that is better suited for the click chemistry–based analysis of S-acylation of endogenously expressed proteins. In this assay, cells are labeled with either palmitate (C16:0), or C16:0-azide, lysed, and then subjected to click chemistry with alkyne-mPEG 5K. The addition of mPEG 5K moieties to S-acylated proteins increases their apparent molecular weight, which can be detected directly by immunoblotting. HEK293T cells were pretreated for 4 h with either TTZ-1 or TTZ-2 at 25 and 50 μM and then labeled with fatty acids for another 4 h in the presence of the compounds. We first assessed the S-acylation of endogenous SNAP23 as it is a close relative of SNAP25 (SNAP25 is not expressed in the non-neuronal HEK293T cell line) ([50], [51]). […]
Figure 10 Activity of TTZ-1 and TTZ-2 against the S-acylation of endogenous proteins in mammalian cells. […] The data were quantified, and the graphs below each set of membranes show mean ± SEM of normalized S-acylation of either endogenous SNAP23 (A) or endogenous calnexin (B). […]

| SMILES | S-acylation of endogenous SNAP23 |
| --- | --- |
| O=C(Nc1cccc2c1OC(c1nnn[nH]1)CN2)c1ccc(OCCCCc2ccccc2)cc1 (centres unmarked) [TTZ-2, N-(2-(1H-Tetrazol-5-yl)-3,4-dihydro-2H-benzo[b][1,4]oxazin-8-yl)-4-(4-phenylbutoxy)benzamide] | significant reduction |
| CCCCCCCOc1ccc(C(=O)Nc2cccc3c2OC(c2nnn[nH]2)CN3)cc1 (centres unmarked) [TTZ-1, N-(2-(1H-Tetrazol-5-yl)-3,4-dihydro-2H-benzo[b][1,4]oxazin-8-yl)-4-(heptyloxy)benzamide] | significant reduction |
